Data on twelve compounds can be found in PubChem BioAssay (NCI).

Among the test systems are 786-0 renal; SNB-19 CNS; SK-MEL-5 melanoma; SW-620 colon; NCI-H226 lung; CCRF-CEM leukemia; SN12C renal; SF-295 CNS; HCC-2998 colon; MCF7 breast; DU-145 prostate; BT-549 breast; MDA-MB-231 breast; MDA-N; HS 578T breast.
Holding throughout (test): NCI anticancer screen, dose series, 48 h

Values joined by “and” are separate entries in the source; they are usually repeats but may differ in a detail not shown here. Identical values can stand only once.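 1) Cells in 96-well plates. 2) Compound, 48 h, 5 concentrations. 3) Linear interpolation between surrounding doses. 4) Unreached endpoint = highest concentration. At the GI50, growth is halved. TGI denotes the concentration required for complete inhibition of growth.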 Bounds are passed on as bounds.

For `Cc1c2n(c(=O)[nH]c1=O)C1OC(CO)C(O2)C1N=[N+]=[N-]` (stereo not given), the TGI in the assay on 786-0 renal, with SNB-19 CNS, in the assay on SK-MEL-5 melanoma, in the assay with SW-620 colon, in the assay on NCI-H226 lung and in the assay on CCRF-CEM leukemia was over 100 µM throughout. The TGI in the assay with SN12C renal and with SF-295 CNS was over 100 µM throughout.
Consider `COc1cc2c(c(OC)c1O)-c1ccc(SC)c(=O)cc1C(NC(C)=O)CC2` (stereo not given), for which the TGI in the assay with 786-0 renal was over 100 µM; in the assay on SNB-19 CNS it was over 100 µM; with HCC-2998 colon, over 100 µM; with SK-MEL-5 melanoma, 0.0361 µM; with SW-620 colon, over 100 µM; with NCI-H226 lung, over 16.7 µM. Besides, the TGI in the assay on CCRF-CEM leukemia is over 100 µM; with SN12C renal, over 100 µM; in the assay with SF-295 CNS it was 0.0868 µM.
In the case of `N/C(=N\N=C/c1ccc(O)c(O)c1O)NO`, the TGI in the assay with SNB-19 CNS is over 100 µM; with HCC-2998 colon, 96.6 µM; in the assay with SK-MEL-5 melanoma it was 45.1 µM; with SW-620 colon it was 39.1 µM; in the assay with NCI-H226 lung, over 77 µM; in the assay with CCRF-CEM leukemia, over 58.1 µM. For the same compound, the TGI was 32.9 µM with MCF7 breast, 34.9 µM in the assay with SN12C renal and over 40 µM in the assay with SF-295 CNS.
As to `CC(=O)c1cccc(Nc2nc3ccccc3c3occc23)c1`, the TGI is 40 µM in the assay on 786-0 renal; over 100 µM in the assay with DU-145 prostate; 60.9 µM with SNB-19 CNS; over 100 µM with HCC-2998 colon; 48.6 µM with SK-MEL-5 melanoma; 8.25 µM with NCI-H226 lung. The TGI in the assay on CCRF-CEM leukemia is over 100 µM; with BT-549 breast, 39.6 µM; with MCF7 breast, over 100 µM; in the assay with SN12C renal, 45.6 µM; in the assay on MDA-MB-231 breast it was 56.4 µM; with SF-295 CNS, 48.4 µM.
In the case of `Cc1ccc(-c2n[nH]c(Cc3nc(-c4ccc(C)cc4)n[nH]3)n2)cc1`, the TGI with 786-0 renal, with DU-145 prostate, with MDA-N, in the assay on SNB-19 CNS, with HCC-2998 colon and in the assay on SK-MEL-5 melanoma was over 100 µM in each case. Also, the TGI in the assay on SW-620 colon, with CCRF-CEM leukemia, with BT-549 breast, in the assay with MCF7 breast, in the assay with SN12C renal and in the assay on MDA-MB-231 breast was over 100 µM in each case. This compound returned a TGI with SF-295 CNS of over 100 µM.
Consider `Cc1ccc(Nc2nc(=O)c3c4ccccc4n(C(=O)OC(C)(C)C)c3s2)cc1`, for which the TGI with HS 578T breast is over 100 µM; in the assay on 786-0 renal, 38.5 µM; in the assay on DU-145 prostate it was over 100 µM; with SNB-19 CNS it was over 100 µM; with SK-MEL-5 melanoma, 27 µM; with SW-620 colon it was over 100 µM. For the same compound, the TGI with CCRF-CEM leukemia was over 100 µM; with BT-549 breast, 56.5 µM; in the assay with MDA-MB-231 breast, over 100 µM; in the assay on SF-295 CNS, 65.6 µM.
Take `Nc1ccccc1-c1noc(=O)[nH]1`: the TGI in the assay with HS 578T breast, with 786-0 renal, with DU-145 prostate, in the assay on SNB-19 CNS, in the assay on HCC-2998 colon and in the assay on SK-MEL-5 melanoma was over 100 µM throughout. Also, the TGI in the assay with SW-620 colon, in the assay with NCI-H226 lung, with CCRF-CEM leukemia, in the assay on BT-549 breast, in the assay with MCF7 breast and with SN12C renal was over 100 µM each time. Also, the TGI in the assay with MDA-MB-231 breast and in the assay on SF-295 CNS was over 100 µM in each case.
Turning to `C=C1C(=O)[C@@]23CC[C@H]4[C@@](C)(CCC[C@@]4(C)C(=O)OC)[C@@H]2CC[C@]1(O)C3`, the GI50 in the assay on SNB-19 CNS was 4.79 µM; with SW-620 colon, 0.878 µM; in the assay with NCI-H226 lung, 1.78 µM; in the assay with MCF7 breast, 0.326 µM; with SF-295 CNS, 9.14 µM. For the same compound, the TGI was 16.6 µM and 27.5 µM in the assay on SNB-19 CNS; 8.55 µM with HCC-2998 colon; 3.65 µM with SK-MEL-5 melanoma; 2.84 µM and 1.85 µM in the assay with SW-620 colon; 3.38 µM and 7.45 µM in the assay on NCI-H226 lung; over 100 µM in the assay with CCRF-CEM leukemia. The TGI in the assay with MCF7 breast is 1.35 µM and 3.79 µM; with SN12C renal, 3.06 µM and 3.23 µM; in the assay on SF-295 CNS, 21.9 µM and 18.1 µM.
`S=C1NCCN1`: the TGI in the assay on 786-0 renal, with SNB-19 CNS, with SK-MEL-5 melanoma, in the assay on SW-620 colon, in the assay with NCI-H226 lung and in the assay on CCRF-CEM leukemia was over 100 µM in each case. The TGI in the assay with SN12C renal and with SF-295 CNS was over 100 µM in each case.
Consider `C[n+]1c2ccccc2c(NCC(=O)O)c2ccccc21`, for which the TGI in the assay on 786-0 renal, in the assay on SNB-19 CNS, in the assay with HCC-2998 colon, in the assay on SK-MEL-5 melanoma, in the assay on SW-620 colon and with NCI-H226 lung was over 100 µM in each case. For the same compound, the TGI with SN12C renal and in the assay on SF-295 CNS was over 100 µM throughout.
On to `Cc1ccc2c(c1)[nH]c(=S)n2C=C(C(N)=O)C(N)=O`, for which the TGI with 786-0 renal, in the assay on DU-145 prostate, with MDA-N, with SNB-19 CNS, with HCC-2998 colon and in the assay with SK-MEL-5 melanoma was over 100 µM each time. Besides, the TGI with SW-620 colon, in the assay with NCI-H226 lung, in the assay on BT-549 breast, in the assay on SN12C renal, in the assay on MDA-MB-231 breast and in the assay with SF-295 CNS was over 100 µM each time.
For the compound `CC1OC(OC2C(OC(=O)[C@]34CCC(C)(C)C[C@H]3C3=CC[C@@H]5[C@@]6(C)CC[C@H](OC7OC(C(=O)O)C(O)C(O)C7O)C(C)(C)[C@@H]6CC[C@@]5(C)[C@]3(C)C[C@H]4O)OCC(O)C2O)C(O)C(O)C1OC1OCC(OC2OCC(O)C(O)C2O)C(O)C1O` (stereo not given in full), the TGI in the assay on HS 578T breast amounted to 37.9 µM; in the assay with 786-0 renal, 23.3 µM; with DU-145 prostate it was 23.8 µM; with SNB-19 CNS it was 18.4 µM; with HCC-2998 colon, 3.03 µM; in the assay with SK-MEL-5 melanoma, 27.2 µM. For the same compound, the TGI in the assay with SW-620 colon amounted to 23.1 µM; in the assay with NCI-H226 lung it was 22.9 µM; in the assay on BT-549 breast, 13 µM; in the assay on MCF7 breast it was 17.6 µM; in the assay with SN12C renal, 5.68 µM; with MDA-MB-231 breast, 11.9 µM. This compound yielded a TGI in the assay on SF-295 CNS of 22.2 µM.
